Assay results published in article PMC12661400, “Oral bioavailable ITRI-148 degrades androgen receptor variants and overcomes antiandrogen resistance in advanced prostate cancer” (Neoplasia (New York, N.Y.), 2025).
Where two headings read alike, the source gives them in different places.

How the values were obtained:
AR(L702H) = target: T1, AR(L702H) (Homo sapiens, UniProt P10275, L702H); assay: Degradation of ectopic Myc-tagged AR mutant in DU145 cells (western blot); type: cell-based; conditions: 10 μM, 24 hours
T1 construct: expressed in transfected cells; host or cells: DU145
T1 sequence (P10275 1-920 L702H): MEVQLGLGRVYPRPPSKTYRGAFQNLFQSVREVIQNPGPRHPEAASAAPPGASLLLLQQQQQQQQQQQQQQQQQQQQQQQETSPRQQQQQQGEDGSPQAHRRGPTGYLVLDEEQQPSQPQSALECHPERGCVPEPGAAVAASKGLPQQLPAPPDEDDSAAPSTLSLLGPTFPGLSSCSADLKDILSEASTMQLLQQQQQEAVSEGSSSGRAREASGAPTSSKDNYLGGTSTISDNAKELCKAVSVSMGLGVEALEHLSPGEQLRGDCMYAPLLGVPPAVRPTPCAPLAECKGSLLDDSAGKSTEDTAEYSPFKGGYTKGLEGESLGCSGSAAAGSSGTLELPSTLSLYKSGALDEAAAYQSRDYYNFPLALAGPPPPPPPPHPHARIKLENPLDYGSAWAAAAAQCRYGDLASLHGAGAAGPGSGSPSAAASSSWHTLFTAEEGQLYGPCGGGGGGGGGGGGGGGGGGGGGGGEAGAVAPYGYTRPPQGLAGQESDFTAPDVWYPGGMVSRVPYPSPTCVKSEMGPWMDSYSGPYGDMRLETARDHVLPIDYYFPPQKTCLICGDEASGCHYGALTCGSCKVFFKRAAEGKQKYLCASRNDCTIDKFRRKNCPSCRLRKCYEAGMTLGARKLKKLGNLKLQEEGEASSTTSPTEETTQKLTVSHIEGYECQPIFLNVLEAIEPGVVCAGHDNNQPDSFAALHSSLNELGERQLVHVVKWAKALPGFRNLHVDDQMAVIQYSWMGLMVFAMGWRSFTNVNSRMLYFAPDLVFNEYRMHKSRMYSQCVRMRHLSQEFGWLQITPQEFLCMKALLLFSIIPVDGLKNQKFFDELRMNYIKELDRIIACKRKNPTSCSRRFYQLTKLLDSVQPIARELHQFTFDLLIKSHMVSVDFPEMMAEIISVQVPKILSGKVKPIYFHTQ
Excerpt: pLenti4/TO/Flag-AR and pLenti4/TO/Flag-AR(∆LBD) plasmids are as described previously. To generate pLenti4/TO/Flag-AR-V7 plasmid, the DNA fragment of AR-V7 was amplified from pEGFP-C1-AR V7, a gift from Michael A Mancini (Addgene plasmid # 86856), and inserted into the pLenti4/TO plasmid carrying a N-terminal Flag tag between BamH1 and XhoI. The AR(L702H) and AR(H875Y) mutants were generated by site-directed mutagenesis of pCMV-Myc-AR, which is previously constructed and described in [22]. Primers used in the cloning and mutagenesis are: […]
Cell lysis, Western blotting, and AR ubiquitination were performed as described in [17]. […]
Fig. 1 ITRI-148 induces degradation of both AR and AR-V7 proteins in CRPC cells. […] AR-V7 expression was detected using an anti-Flag antibody. […] An N-terminal AR antibody was used to detect both full-length AR and LBD-truncated variants (AR-V(ΔLBD)) in CWR22Rv1 cells, while AR-V7 was detected using an AR-V7-specific antibody. DC₅₀ values were calculated from normalized band intensities, and Dₘₐₓ represents the maximal degradation achieved at 10 μM ITRI-148. (D) Immunofluorescence staining of AR after 24 or 48 hours of ITRI-148 treatment, detected using an N-terminal AR antibody. […] Quantified AR levels are as indicated. […]

AR-V7 = target: T2, AR-V7 (Homo sapiens, UniProt P10275); assay: AR-V7 degradation by immunoblotting in CRPC cells; type: cell-based
T2 construct: endogenous in cells; host or cells: VCaP, CWR22Rv1
T2 sequence (P10275 1-644 isoform P10275-3): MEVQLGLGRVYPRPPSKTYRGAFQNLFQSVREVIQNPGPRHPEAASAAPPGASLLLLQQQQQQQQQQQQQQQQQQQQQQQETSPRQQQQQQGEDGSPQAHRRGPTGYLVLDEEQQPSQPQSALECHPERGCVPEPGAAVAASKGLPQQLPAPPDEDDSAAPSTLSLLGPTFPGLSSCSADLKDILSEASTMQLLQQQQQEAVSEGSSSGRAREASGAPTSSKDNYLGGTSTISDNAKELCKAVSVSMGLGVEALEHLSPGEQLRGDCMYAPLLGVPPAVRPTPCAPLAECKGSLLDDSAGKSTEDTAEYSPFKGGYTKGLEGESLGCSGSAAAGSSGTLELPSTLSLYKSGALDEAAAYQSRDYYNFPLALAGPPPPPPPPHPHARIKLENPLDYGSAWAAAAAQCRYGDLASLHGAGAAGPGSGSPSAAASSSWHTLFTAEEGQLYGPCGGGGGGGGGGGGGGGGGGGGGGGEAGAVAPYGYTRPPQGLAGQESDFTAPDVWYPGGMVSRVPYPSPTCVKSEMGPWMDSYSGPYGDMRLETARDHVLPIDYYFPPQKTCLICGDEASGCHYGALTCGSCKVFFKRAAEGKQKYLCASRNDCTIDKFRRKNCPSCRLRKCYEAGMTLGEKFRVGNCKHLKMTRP
Experimental: Cell lysis, Western blotting, and AR ubiquitination were performed as described in [17]. Primary antibodies: AR (Millipore 06-680), AR-V7 (RevMAb Biosciences 31-1109-00), PSA (ABclonal A4355), NKX3-1 (Cell Signaling Technology 92998), GAPDH (Cell Signaling Technology 2118) and β-Actin (Sigma-Aldrich A5441).
Fig. 1 ITRI-148 induces degradation of both AR and AR-V7 proteins in CRPC cells. […] (B) Expression of Flag-tagged AR-V7 in 293T cells following ITRI-148 treatment. Cells transiently expressing Flag-AR-V7 were pretreated with 50 μg/mL cycloheximide for 1 hour, then exposed to ITRI-148 at the indicated concentrations for 8 hours. AR-V7 expression was detected using an anti-Flag antibody. (C) Representative immunoblots showing AR protein levels in VCaP and CWR22Rv1 cells after 48 hours of ITRI-148 treatment. An N-terminal AR antibody was used to detect both full-length AR and LBD-truncated variants (AR-V(ΔLBD)) in CWR22Rv1 cells, while AR-V7 was detected using an AR-V7-specific antibody. DC₅₀ values were calculated from normalized band intensities, and Dₘₐₓ represents the maximal degradation achieved at 10 μM ITRI-148. (D) Immunofluorescence staining of AR after 24 or 48 hours of ITRI-148 treatment, detected using an N-terminal AR antibody. […] (F) Western blot analysis of ectopically expressed wild-type (WT) and mutant Myc-tagged AR in DU145 cells following 24 hours of treatment with 10 μM ITRI-148. Quantified AR levels are as indicated. TEXT PRINTED IN THE PICTURE: (C) ITRI-148: DC50 (μM) AR CWR22Rv1: 1.23 ± 1.86; DC50 (μM) AR VCaP: 0.05 ± 0.03; DC50 (μM) AR-V7 CWR22Rv1: 1.20 ± 0.92; DC50 (μM) AR-V7 VCaP: 0.02 ± 0.02; Dmax (%) AR CWR22Rv1: 65.02 ± 19.91; Dmax (%) AR VCaP: 80.49 ± 5.61; Dmax (%) AR-V7 CWR22Rv1: 72.10 ± 3.15; Dmax (%) AR-V7 VCaP: 91.36 ± 2.05

[1] = VCaP, maximal degradation at 10 μM

O=C1CCC(N2C(=O)c3cccc(NCC(=O)N4CCC(N5CCC(C#Cc6ccc(C7CCN(C8=Nn9c(nnc9C(F)(F)F)CC8)CC7)cc6)CC5)CC4)c3C2=O)C(=O)N1 (stereo not shown) [ITRI-148]
degradation of Myc-tagged AR mutant L702H (AR(L702H)): degraded
DC50 (AR-V7; CWR22Rv1, 48 hours, read-out: DC50 AR-V7): 1.2 ± 0.92 µM
Dmax at 10 µM (AR-V7; CWR22Rv1, CWR22Rv1, maximal degradation at 10 μM): 72.1 ± 3.15%
DC50 (AR-V7; VCaP cells, read-out: half-maximal degradation concentration (DC50) for AR-V7): ~0.02 µM
DC50 (AR-V7; VCaP, 48 hours, read-out: DC50 AR-V7): 0.02 ± 0.02 µM
Dmax AR-V7 (AR-V7; [1]): 91%
Dmax at 10 µM (AR-V7; [1]): 91.4 ± 2.05%
